Read-outs that look alike come from different tables or passages of the source.
Experiments:
[1] = test system: ECHCO (Echinochloa colona, junglerice); test: Postemergence foliar-applied mixtures, direct seeded rice, greenhouse; assay type: in vivo, Echinochloa colona (L.) Link; conditions: 450 g ai/ha; 21 DAA
Excerpt: (§1) Seeds or nutlets of the desired test plant species were planted in a soil matrix prepared by mixing a loam or sandy loam soil (e.g., 28.6 percent silt, 18.8 percent clay, and 52.6 percent sand, with a pH of about 5.8 and an organic matter content of about 1.8 percent) and calcareous grit in an 80 to 20 ratio. The soil matrix was contained in plastic pots with a volume of 1 quart and a surface area of 83.6 square centimeters (cm^2). When required to ensure good germination and healthy plants, a fungicide treatment and/or other chemical or physical treatment was applied. The plants were grown for 8-22 days in a greenhouse with an approximate 14 h photoperiod which was maintained at about 29° C. during the day and 26° C. during the night. Nutrients (Peters Excel® 15-5-15 5-Ca 2-Mg and iron chelate) were applied in the irrigation solution as needed and water was added on a regular basis. Supplemental lighting was provided with overhead metal halide 1000-Watt lamps as necessary. The plants were employed for testing when they reached the first through fourth true leaf stage.
(§2) Treatments consisted of the acid or esters of 4-amino-3-chloro-5-fluoro-6-(4-chloro-2-fluoro-3-methoxy-phenyl) pyridine-2-carboxylic acid (Compound A), each formulated as an SC (suspension concentrate), and various herbicidal components alone and in combination. Forms of compound A were applied on an acid equivalent basis.
(§3) Other herbicidal components were applied on an active ingredient basis and included Photosystem II (PSII)-inhibiting herbicides propanil formulated as Stam® M4 EC, bentazon-sodium formulated as Basagran®, atrazine formulated as Atrazine 90 WDG, bromoxynil octanoate ester formulated as Buctril®, simetryne (technical grade material), simazine formulated as Princep® Caliber 90, ioxynil (technical grade material), cyanazine (technical grade material), and hexazinone (technical grade material).
(§4) Treatment requirements were calculated based upon the rates being tested, the concentration of active ingredient or acid equivalent in the formulation, and a 12 mL application volume at a rate of 187 L/ha.
(§5) For treatments comprised of formulated compounds, measured amounts of compounds were placed individually in 25 mL glass vials and diluted in a volume of 1.25% (v/v) Agri-Dex® crop oil concentrated to obtain 12× stock solutions. […] Application solutions were prepared by adding an appropriate amount of each stock solution (e.g., 1 mL) and diluted to the appropriate final concentrations with the addition of 10 mL of an aqueous mixture of 1.25% (v/v) crop oil concentrate so that the final spray solutions contained 1.25+/−0.05% (v/v) crop oil concentrate.
(§6) For treatments comprised of technical compounds, weighed amounts can be placed individually in 25 mL glass vials and dissolved in a volume of 97:3 v/v acetone/DMSO to obtain 12× stock solutions. […] Application solutions can be prepared by adding an appropriate amount of each stock solution (e.g., 1 mL) and diluted to the appropriate final concentrations with the addition of 10 mL of an aqueous mixture of 1.5% (v/v) crop oil concentrate so that the final spray solutions contain 1.25% (v/v) crop oil concentrate. When technical materials are used, the concentrated stock solutions can be added to the spray solutions so that the final acetone and DMSO concentrations of the application solutions are 16.2% and 0.5%, respectively.
(§7) For treatments comprised of formulated and technical compounds, weighed amounts of the technical materials were placed individually in 25 mL glass vials and dissolved in a volume of 97:3 v/v acetone/DMSO to obtain 12× stock solutions, and measured amounts of the formulated compounds were placed individually in 25 mL glass vials and diluted in a volume of 1.5% (v/v) crop oil concentrate or water to obtain 12× stock solutions. […]

[2] = test system: CYPRO (Cyperus rotundus, purple nutsedge); test: In-water applied mixtures, transplanted paddy rice, greenhouse; assay type: in vivo, Cyperus rotundus L.; conditions: 19 DAA
Method: (§8) Weed seeds or nutlets of the desired test plant species were planted in puddled soil (mud) prepared by mixing a shredded, non-sterilized mineral soil (50.5 percent silt, 25.5 percent clay, and 24 percent sand, with a pH of about 7.6 and an organic matter content of about 2.9 percent) and water at a 1:1 volumetric ratio. The prepared mud was dispensed in 365 mL aliquots into 16-ounce (oz.) non-perforated plastic pots with a surface area of 86.59 square centimeters (cm^2) leaving a headspace of 3 centimeters (cm) in each pot Mud was allowed to dry overnight prior to planting or transplanting. Rice seeds were planted in Sun Gro MetroMix® 306 planting mixture, which typically has a pH of 6.0 to 6.8 and an organic matter content of about 30 percent, in plastic plug trays. Seedlings at the second or third leaf stage of growth were transplanted into 840 mL of mud contained in 32-oz. non-perforated plastic pots with a surface area of 86.59 cm^2 4 days prior to herbicide application. The paddy was created by filling the headspace of the pots with 2.5 to 3 cm of water. When required to ensure good germination and healthy plants, a fungicide treatment and/or other chemical or physical treatment was applied. The plants were grown for 4-22 days in a greenhouse with an approximate 14 h photoperiod which was maintained at about 29° C during the day and 26° C. during the night. Nutrients were added as Osmocote® (19:6:12, N:P:K+ minor nutrients) at 2 g per 16-oz. pot and 4 g per 32-oz. pot. Water was added on a regular basis to maintain the paddy flood, and supplemental lighting was provided with overhead metal halide 1000-Watt lamps as necessary. The plants were employed for testing when they reached the first through fourth true leaf stage.
(§9) Treatments consisted of the acid or esters of 4-amino-3-chloro-5-fluoro-6-(4-chloro-2-fluoro-3-methoxy-phenyl)pyridine-2-carboxylic acid (compound A) each formulated as an SC (suspension concentrate) and various herbicidal components alone and in combination. Forms of compound A were applied on an acid equivalent basis.
(§10) Other herbicidal components were applied on an active ingredient basis and included photosystem II (PSII)-inhibits propanil formulated as […] bentazon-sodium formulated as Basagran®, and simetryne (technical grade material).
(§11) Treatment requirements for each compound or herbicidal component were calculated based upon the rates being tested, the concentration of active ingredient or acid equivalent in the formulation, an application volume of 2 mL per component per pot, and an application area of 86.59 cm^2 per pot.
(§12) For formulated compounds, a measured amount was placed in an individual 100 or 200 mL glass vial and was dissolved in a volume of 1.25% (v/v) Agri-Dex® crop oil concentrate to obtain application solutions.
(§13) For technical grade compounds, a weighed amount was placed in an individual 100 to 200 mL glass vial and was dissolved in a volume of acetone to obtain concentrated stock solutions. […] The concentrated stock solutions obtained were diluted with an equivalent volume of an aqueous mixture containing 2.5% (v/v) crop oil concentrate so that the final application solutions contained 1.25% (v/v) crop oil concentrate.
(§14) Applications were made by injecting with a pipetter appropriate amounts of the application solutions, individually and sequentially, into the aqueous layer of the paddy. Control plants were treated in the same manner with the solvent blank. Applications were made so that all treated plant material received the same concentrations of acetone and crop oil concentrate.
(§15) The treated plants and control plants were placed in a greenhouse as described above and water was added as needed to maintain a paddy flood. After approximately 3 weeks the condition of the test plants as compared with that of the untreated plants was determined visually and scored on a scale of 0 to 100 percent where 0 corresponds to no injury or growth inhibition and 100 corresponds to complete kill. […]

[3] = test system: LEFCH (Leptochloa chinensis, Chinese sprangletop); test: Postemergence foliar-applied mixtures, direct seeded rice, greenhouse; assay type: in vivo, Leptochloa chinensis (L.) Nees; conditions: 225 g ai/ha; 22 DAA
Excerpt: as §1, with “stage. […]” for “stage.”
as §4
(§16) For treatments comprised of formulated compounds, measured amounts of compounds were placed individually in 25 mL glass vials and diluted in a volume of 1.25% (v/v) Agri-Dex® crop oil concentrated to obtain 12× stock solutions. […]
as §7

[4] = test system: ECHOR (Echinochloa oryzoides, early watergrass); test: In-water applied mixtures, transplanted paddy rice, greenhouse; assay type: in vivo, Echinochloa oryzoides (Ard.) Fritsch
Method: as §8, §9, §10, §11, §12, §13, §14, §15

[5] = test system: FIMMI (Fimbristylis miliacea, globe fringerush); test: as above; assay type: in vivo, Fimbristylis miliacea (L.) Vahl; conditions: 19 DAA
Method: as §8, §9, §10, §11, §12
For technical grade compounds, a weighed amount was placed in an individual 100 to 200 mL glass vial and was dissolved in a volume of acetone to obtain concentrated stock solutions. […]
as §15

[6] = test system: CYPIR (Cyperus iria, rice flatsedge); test: Postemergence foliar-applied mixtures, direct seeded rice, greenhouse; assay type: in vivo, Cyperus iria L.; conditions: 22 DAA
Excerpt: as §1, §2, §3, §4, §5, §6, §7

[7] = test system: SCPMA (Schoenoplectus maritimus, sea clubrush); test: In-water applied mixtures, transplanted paddy rice, greenhouse; assay type: in vivo, Schoenoplectus maritimus (L.) Lye; conditions: 1120 g ae/ha; 20 DAA
Method: as §8, §9, §10, §11, §12, §13, §14, §15

[8] = test system: IPOHE (Ipomoea hederacea, ivyleaf morningglory); test: Postemergence foliar-applied mixtures, direct seeded rice, greenhouse; assay type: in vivo, Ipomoea hederacea Jacq.; conditions: post-emergence, read-out: Visual Weed Control (%) Obs
Excerpt: as §1, §2, §3, §4, §5, §6, §7

[9] = test system: ECHCG (Echinochloa crusgalli, barnyardgrass); test: In-water applied mixtures, transplanted paddy rice, greenhouse; assay type: in vivo, Echinochloa crusgalli (L.) Beauv.; conditions: 21 DAA
Method: as §8, with “stage. […]” for “stage.”
as §11
For formulated compounds, a measured amount was placed in an individual 100 or 200 mL glass vial and was dissolved in a volume of 1.25% (v/v) Agri-Dex® crop oil concentrate to obtain application solutions. […]
as §15

[10] = test system: LEFCH (Leptochloa chinensis, Chinese sprangletop); test: as above; assay type: in vivo, Leptochloa chinensis (L.) Nees
Method: as §8, §9, §10, §11, §12, §13, §14, §15

[11] = test system: COMBE (Commelina benghalensis, Benghal dayflower); test: Postemergence foliar-applied mixtures, direct seeded rice, greenhouse; assay type: in vivo, Commelina benghalensis L.; conditions: 280 g ai/ha; 20 DAA
Excerpt: as §1, with “stage. […]” for “stage.”
as §4, §16, §7

SMILES: CCNc1nc(NCC)nc(SC)n1 [Simetryne, N,N′-diethyl-6-(methylthio)-1,3,5-triazine-2,4-diamine, reference compound]
- Visual Weed Control (%) Obs [1]: 45%
- Visual Weed Control (%) Obs ([2]; 112.5 g ai/ha): 0%
- Visual Weed Control (%) Obs ([2]; 225 g ai/ha): 0%
- Visual Weed Control (%) Obs ([2]; 450 g ai/ha): 0%
- Visual Weed Control (%) Obs [3]: 40%
- Visual Weed Control (%) Obs ([4]; 112.5 g ai/ha, 19 DAA): 0%
- Visual Weed Control (%) Obs ([4]; 225 g ai/ha, 19 DAA): 10%
- Visual Weed Control (%) Obs ([5]; 112.5 g ai/ha): 45%
- Visual Weed Control (%) Obs ([5]; 225 g ai/ha): 90%
- Visual Weed Control (%) Obs ([6]; 112.5 g ai/ha): 0%
- Visual Weed Control (%) Obs ([6]; 225 g ai/ha): 0%
- Visual Weed Control (%) Obs ([6]; 450 g ai/ha): 30%

SMILES: CC(C)N1C(=O)c2ccccc2NS1(=O)=O [Bentazon-sodium, 3-(1-methylethyl)-1H-2,1,3-benzothiadiazin-4(3H)-one 2,2-dioxide, reference compound]
- Visual Weed Control (%) Obs [7]: 0%
- pest or weed control at 840 g/ha ([8]; 480 h, 840 g ae/ha, 20 DAA): 13%
- pest or weed control at 105 g/ha ([8]; 504 h, 105 g ai/ha, 21 DAA): 0%
- pest or weed control at 210 g/ha ([8]; 504 h, 210 g ai/ha, 21 DAA): 0%
- pest or weed control at 420 g/ha ([8]; 504 h, 420 g ai/ha, 21 DAA): 10%
- pest or weed control at 840 g/ha ([8]; 504 h, 840 g ai/ha, 21 DAA): 13%
- Visual Weed Control (%) Obs ([9]; 420 g ae/ha): 0%
- Visual Weed Control (%) Obs ([9]; 840 g ae/ha): 0%
- Visual Weed Control (%) Obs ([10]; 420 g ae/ha, 21 DAA): 0%
- Visual Weed Control (%) Obs ([10]; 840 g ae/ha, 21 DAA): 0%
- Visual Weed Control (%) Obs ([10]; 1120 g ae/ha, 20 DAA): 0%
- Visual Weed Control (%) Obs ([4]; 1120 g ae/ha, 20 DAA): 0%
- Visual Weed Control (%) Obs [11]: 10%
